≈ marks a conversion by molar mass, not a printed value. Structures can show the parent of a compound that is named as a salt. Where two headings read alike, the source gives them in different places.
Columns and labels:
[1] = Solubility in water at 25 deg. C.; type: physicochemical; details: average of triplicate
Excerpt: (§1) The solubility in water is given as a model of polar solvents, while the octanol and chloroform are given as models for skin lipids.

[2] = Solubility in ethanol at 25 deg. C.; type: physicochemical; details: average of triplicate
[3] = Solubility in chloroform at 25 deg. C. (model of skin lipids); type: physicochemical
Excerpt: (§2) In the examples, the solubilities of free zwitterion and enhanced solubilities of various salts thereof are reported in various degrees in the following solvents: water, ethanol, octanol, chloroform and human stratum corneum. Permeation rates are also shown for these zwitterionic compounds and enhanced fluxes of the salts thereof through materials including polyurethane. While such materials are impractical for transdermal devices for free zwitterions, these materials are practical for the transdermal delivery of salts of zwitterions. The solubility in water is given as a model of polar solvents, while the octanol and chloroform are given as models for skin lipids. The critical factor for inclusion of a salt within the invention is that relative to its non salt zwitterion parent compound, the salt form of the invention has a greater solubility in both polar and lipid skin models.
(§3) Average of values measured in triplicate.

[4] = Permeation rate through polyurethane; type: physicochemical
Excerpt: as §2, §3

[5] = Solubility in octanol at 25 deg. C. (model of skin lipids); type: physicochemical; details: average of triplicate
Excerpt: as §1

[6] = Solubility in human stratum corneum; type: physicochemical; details: average of triplicate
Excerpt: as §2, §3

[7] = Permeation rate through human epidermis; type: in vitro ADME
Excerpt: as §2, §3

[8] = at 25 deg. C., average of triplicate

Structure (SMILES) | Solubility in water [1] | Solubility in ethanol [2] | Solubility in chloroform [3, 8] | Permeation rate through polyurethane ([4]; average of triplicate) | R.E. (relative enhancement) of permeation rate through polyurethane ([4]; relative to free zwitterion) | Solubility in octanol [5] | Permeation rate through polyurethane [4] | R.E. (relative enhancement) of permeation rate through polyurethane [4] | other results
NCC(CC(=O)O)c1ccc(Cl)cc1 (stereo not drawn) [Bac. ethane sulfonate] | 38.8898 mg/mL | 237.181 mg/mL | 11.17 µg/mL | 211.9 ug/cm 2/hr | 39.83 |  |  |  | 
NCC(CC(=O)O)c1ccc(Cl)cc1 (stereo not drawn) [Bac. fumarate] | 1.1875 mg/mL |  | 0.627 µg/mL | 11.4 ug/cm 2/hr | 2.14 |  |  |  | 
NCC(CC(=O)O)c1ccc(Cl)cc1 (stereo not drawn) [Bac. hydrobromide] | 351.9468 mg/mL | 129.5697 mg/mL | 13.7 µg/mL | 738.9 ug/cm 2/hr | 138.89 | 0.47705 mg/mL |  |  | Solubility in human stratum corneum [6]: 0.2922 mg/mL; Permeation rate through human epidermis ([7]; average of triplicate): 25.49 ug/cm 2/hr; R.E. (relative enhancement) of permeation rate through human epidermis ([7]; relative to free zwitterion): 216.02
NCC(CC(=O)O)c1ccc(Cl)cc1 (stereo not drawn) [Bac. hydrochloride] | 244.6225 mg/mL | 37.4989 mg/mL | 5.34 µg/mL | 273.7 ug/cm 2/hr | 51.45 | 0.3243 mg/mL |  |  | Solubility in human stratum corneum [6]: 0.21469 mg/mL
NCC(CC(=O)O)c1ccc(Cl)cc1 (stereo not drawn) [Bac. hydrofluoride] | 1.3962 mg/mL (≈ 6.53 mM) | 1.79088 mg/mL (≈ 8.38 mM) | 0.104 µg/mL (≈ 0.000487 mM) | 3.45 ug/cm 2/hr | 0.65 |  |  |  | Solubility in human stratum corneum [6]: 0.02215 mg/mL (≈ 0.104 mM)
NCC(CC(=O)O)c1ccc(Cl)cc1 (stereo not drawn) [Bac. lithium salt] | 21.7191 mg/mL | 57.8373 mg/mL | 6.93 µg/mL | 128.3 ug/cm 2/hr | 24.12 |  |  |  | 
O=C(O)CN1C(=O)[C@@H](N[C@@H](CCc2ccccc2)C(=O)O)CCc2ccccc21 [Benazeprilat (CGS14831), Benazeprilat, reference compound] |  | 0.12089 mg/mL (≈ 0.305 mM) |  |  |  |  | 0.311 ug/cm 2/hr | 1.00 | Permeation rate through human epidermis [7]: 0.1409 ug/cm 2/hr; R.E. (relative enhancement) of permeation rate through human epidermis [7]: 1.00
O=C(O)CN1C(=O)[C@@H](N[C@@H](CCc2ccccc2)C(=O)O)CCc2ccccc21 [CGS 14831. dilithium salt] |  | 27.97561 mg/mL |  |  |  |  | 47.76 ug/cm 2/hr | 153.57 | Permeation rate through human epidermis [7]: 8.95 ug/cm 2/hr; R.E. (relative enhancement) of permeation rate through human epidermis [7]: 63.52
O=C(O)CN1C(=O)[C@@H](N[C@@H](CCc2ccccc2)C(=O)O)CCc2ccccc21 [CGS 14831. dipotassium salt] |  | 34.19351 mg/mL |  |  |  |  | 75.01 ug/cm 2/hr | 241.19 | Permeation rate through human epidermis [7]: 20.56 ug/cm 2/hr; R.E. (relative enhancement) of permeation rate through human epidermis [7]: 145.92
NCCCC[C@H](N[C@H]1CCc2ccccc2N(CC(=O)O)C1=O)C(=O)O [CGS 16617, reference compound] | 491.5 mg/mL (≈ 1350 mM) | 0.1907 mg/mL (≈ 0.525 mM) |  |  |  | 0.02336 mg/mL (≈ 0.0643 mM) | 0.538 ug/cm 2/hr | 1.00 | 
NCCCC[C@H](N[C@H]1CCc2ccccc2N(CC(=O)O)C1=O)C(=O)O [CGS 16617. dihydrobromide] | 1423 mg/mL | 45.0269 mg/mL |  |  |  | 0.5067 mg/mL | 65.31 ug/cm 2/hr | 121.39 | 
NCCCC[C@H](N[C@H]1CCc2ccccc2N(CC(=O)O)C1=O)C(=O)O [CGS 16617. dihydrochloride] | 1127.8 mg/mL | 1.89075 mg/mL |  |  |  | 0.0878 mg/mL | 13.34 ug/cm 2/hr | 24.80 | 
NCCCC[C@H](N[C@H]1CCc2ccccc2N(CC(=O)O)C1=O)C(=O)O [CGS 16617. monomaleate] | 623.9 mg/mL | 0.24882 mg/mL |  |  |  | 0.01396 mg/mL | 3.47 ug/cm 2/hr | 6.45 | 
NC(Cc1ccccc1)C(=O)O (stereo not drawn) [Phe. hydrochloride] | 959.6908 mg/mL | 107.1459 mg/mL | 58.26 µg/mL | 1516.23 ug/cm 2/hr | 789.70 | 40.2318 mg/mL |  |  | Permeation rate through human epidermis ([7]; average of triplicate): 77.53 ug/cm 2/hr; R.E. (relative enhancement) of permeation rate through human epidermis ([7]; relative to free zwitterion): 76.01
N[C@@H](Cc1ccccc1)C(=O)O [Phenylalanine (Phe), Phenylalanine, reference compound] |  |  |  | 1.92 ug/cm 2/hr | 1.00 |  |  |  | solubility ([1]; water): 25.3 mg/mL (≈ 153 mM); solubility ([2]; ethanol, organic solvent or mixture): 0.234 mg/mL (≈ 1.42 mM); solubility ([5]; octanol, organic solvent or mixture): 0.0123 mg/mL (≈ 0.0745 mM); solubility ([3]; chloroform, organic solvent or mixture, at 25 deg. C., average of triplicate): 0.00021 mg/mL (≈ 0.00127 mM); Permeation rate through human epidermis ([7]; average of triplicate): 1.02 ug/cm 2/hr; R.E. (relative enhancement) of permeation rate through human epidermis ([7]; relative to free zwitterion): 1.00

Further lines, with some results ahead:

Solubility in water [1] | Solubility in ethanol [2] | Solubility in chloroform [3, 8] | Permeation rate through polyurethane ([4]; average of triplicate) | R.E. (relative enhancement) of permeation rate through polyurethane ([4]; relative to free zwitterion) | Solubility in octanol [5] | Permeation rate through polyurethane [4] | R.E. (relative enhancement) of permeation rate through polyurethane [4] | Structure (SMILES) | other results
1.2923 mg/mL |  | 0.026 µg/mL | 19.13 ug/cm 2/hr | 3.59 |  |  |  | NCC(CC(=O)O)c1ccc(Cl)cc1 (stereo not drawn) [Bac. maleate] | 
8.8269 mg/mL | 170.84 mg/mL | 0.087 µg/mL | 287.9 ug/cm 2/hr | 54.12 |  |  |  | NCC(CC(=O)O)c1ccc(Cl)cc1 (stereo not drawn) [Bac. methane sulfonate, baclofen methane sulfonate] | solubility in chloroform versus free zwitterion ([3]; in words, exception to salt being more soluble): one exception
 | 61.6503 mg/mL | 37.4 µg/mL | 220.2 ug/cm 2/hr | 41.30 | 0.5764 mg/mL |  |  | NCC(CC(=O)O)c1ccc(Cl)cc1 (stereo not drawn) [Bac. pentane sulfonate] | 
 |  |  | 587.8 ug/cm 2/hr | 110.49 |  |  |  | NCC(CC(=O)O)c1ccc(Cl)cc1 (stereo not drawn) [Bac. potassium salt] | 
24.4257 mg/mL | 107.317 mg/mL | 8.74 µg/mL | 233.9 ug/cm 2/hr | 43.97 |  |  |  | NCC(CC(=O)O)c1ccc(Cl)cc1 (stereo not drawn) [Bac. propane sulfonate] | 
21.3797 mg/mL | 529.056 mg/mL | 3.47 µg/mL | 605.3 ug/cm 2/hr | 113.78 |  |  |  | NCC(CC(=O)O)c1ccc(Cl)cc1 (stereo not drawn) [Bac. sodium salt] | 
6.8287 mg/mL (≈ 32 mM) | 1.1441 mg/mL (≈ 5.35 mM) | 0.22 µg/mL (≈ 0.00103 mM) | 5.32 ug/cm 2/hr | 1.00 | 0.0222 mg/mL (≈ 0.104 mM) |  |  | NCC(CC(=O)O)c1ccc(Cl)cc1 (stereo not drawn) [Baclofen (Bac), Baclofen, reference compound] | Solubility in human stratum corneum [6]: 0.00311 mg/mL (≈ 0.0146 mM); Permeation rate through human epidermis ([7]; average of triplicate): 0.118 ug/cm 2/hr; R.E. (relative enhancement) of permeation rate through human epidermis ([7]; relative to free zwitterion): 1.00

Source: patent US5073539A, “Transdermal administration of zwitterionic drugs” (Ciba-Geigy Corporation, priority 1990, dated 1991)
